According to ChEMBL document CHEMBL4229350, “Antimicrobial activity and self-assembly behavior of antimicrobial peptide chensinin-1b with lipophilic alkyl tails” (Eur J Med Chem, 2018):
In brackets after ≈: the same amount, converted by molar mass. Activity calls are given as the source filed them. The calls are words filed in the database; no cut-off is given here. Peptide text beside a SMILES is read from it. * marks the point of attachment. Palmitoyl = CCCCCCCCCCCCCCCC(=O)*

Experiments:
Lipid bilayer [1] = experiment: Induction of membrane permeabilization in PC/cholesterol large unilamellar vesicles assessed as blue shift by Tryptophan fluorescence spectroscopy
Enterococcus faecalis = experiment: Antimicrobial activity against Enterococcus faecalis CGMCC 1.595 after 18 hrs by micro dilution method; assay type: functional; conditions: CGMCC 1.595, 18 h
Lipopolysaccharide (LPS) [2] = experiment: Induction of LPS micelles disaggergation assessed as abundant particle size formation at 2 uM by DLS method
U-937 [3] = experiment: Antiinflammatory activity in human U937 cells assessed as inhibition of LPS-induced TNF-alpha production at 6.25 uM after 24 hrs by ELISA relative to control; assay type: functional; conditions: U-937, 24 h
Lipid bilayer [4] = experiment: Induction of membrane permeabilization in PG/CL/PE large unilamellar vesicles assessed as blue shift at compound to lipid ratio of 10 by Tryptophan fluorescence spectroscopy
Escherichia coli [5] = experiment: Antimicrobial activity against Escherichia coli AS 1.349 after 18 hrs by micro dilution method; assay type: functional; conditions: AS 1.349, 18 h
A-375 = experiment: Cytotoxicity against human A375 cells assessed as reduction in cell viability after 1 hr by MTT assay; assay type: functional, cell-based; conditions: A-375, 1 h
Lipopolysaccharide (LPS) [6] = experiment: Binding affinity to Escherichia coli 0111:B4 LPS by ITC method
Lipid bilayer [7] = experiment: Induction of membrane permeabilization in calcein loaded LPS/PC/PG large unilamellar vesicles assessed as calcein leakage after 15 mins by fluorescence assay
U-937 [8] = experiment: Antiinflammatory activity in human U937 cells assessed as inhibition of LPS-induced IL-6 production at 6.25 uM after 24 hrs by ELISA relative to control; assay type: functional; conditions: U-937, 24 h
U-937 [9] = experiment: Antiinflammatory activity in human U937 cells assessed as inhibition of LPS-induced TNF-alpha production after 24 hrs by ELISA; assay type: functional, cell-based
Lipid bilayer [10] = experiment: Induction of membrane permeabilization in calcein loaded PG/CL large unilamellar vesicles assessed as calcein leakage at 3 uM after 10 mins by fluorescence assay relative to control
[11] = Cytotoxicity against human U937 cells assessed as cell viability at 3.13 to 12.6 uM after 1 hr by MTT assay relative to control; assay type: cell-based, U-937; conditions: read-out: Activity
MCF7 = experiment: Cytotoxicity against human MCF7 cells assessed as reduction in cell viability after 1 hr by MTT assay; assay type: functional, cell-based; conditions: MCF7, 1 h
Lactococcus lactis = experiment: Antimicrobial activity against Streptococcus lactis AS 1.1690 after 18 hrs by micro dilution method; assay type: functional; conditions: AS 1.1690, 18 h
Escherichia coli [12] = experiment: Antimicrobial activity against Escherichia coli AS 1.349 assessed as induction of outer membrane permeabilization by measuring NPN uptake by fluorescence assay; assay type: functional, organism-based
Lipid bilayer [13] = experiment: Induction of membrane permeabilization in calcein loaded PG/CL large unilamellar vesicles assessed as calcein leakage at 6 uM after 15 mins by fluorescence assay relative to control
U-937 [14] = experiment: Antiinflammatory activity in human U937 cells assessed as inhibition of LPS-induced IL-6 production at 12.6 uM after 24 hrs by ELISA relative to control; assay type: functional; conditions: U-937, 24 h
Lipid bilayer [15] = experiment: Induction of membrane permeabilization in PG/CL large unilamellar vesicles assessed as blue shift at compound to lipid ratio of 60 by Tryptophan fluorescence spectroscopy
Lipid bilayer [16] = experiment: Induction of membrane permeabilization in calcein loaded PC/cholesterol large unilamellar vesicles assessed as calcein leakage at 50 uM after 10 mins by fluorescence assay relative to control
Staphylococcus aureus [17] = experiment: Antimicrobial activity against Staphylococcus aureus AS 1.72 assessed as induction of bacterial cytoplasmic membrane depolarization at 2 times MIC after 6 mins by diSC3-5 dye-based fluorescence assay; assay type: functional, organism-based
[18] = Hemolytic activity against human erythrocytes after 1 hr; assay type: ADME, cell-based, Erythrocyte
Enterococcus faecium = experiment: Antimicrobial activity against Enterococcus faecium CGMCC 1.2334 after 18 hrs by micro dilution method; assay type: functional; conditions: CGMCC 1.2334, 18 h
Bacillus cereus = experiment: Antimicrobial activity against Bacillus cereus AS 1.126 after 18 hrs by micro dilution method; assay type: functional; conditions: AS 1.126, 18 h
U-937 [19] = experiment: Antiinflammatory activity in human U937 cells assessed as inhibition of LPS-induced TNF-alpha production at 12.6 uM after 24 hrs by ELISA relative to control; assay type: functional; conditions: U-937, 24 h
U-937 [20] = experiment: Antiinflammatory activity in human U937 cells assessed as inhibition of LPS-induced TNF-alpha production at 3.13 uM after 24 hrs by ELISA relative to control; assay type: functional; conditions: U-937, 24 h
[21] = Self-assembly property assessed as diameter of monodispersed micelles at 1 mg/ml at pH 7 by TEM analysis; assay type: physicochemical
[22] = Self-assembly property assessed as diameter of tightly packed nanofibers at 1 mg/ml at pH 2 by TEM analysis; assay type: physicochemical
Staphylococcus aureus [23] = experiment: Antimicrobial activity against Staphylococcus aureus AS 1.72 after 18 hrs by micro dilution method; assay type: functional; conditions: AS 1.72, 18 h
Staphylococcus aureus [24] = experiment: Antimicrobial activity against Staphylococcus aureus AS 1.72 assessed as induction of outer membrane permeabilization by measuring NPN uptake by fluorescence assay; assay type: functional, organism-based
U-937 [25] = experiment: Antiinflammatory activity in human U937 cells assessed as inhibition of LPS-induced IL-6 production at 3.13 uM after 24 hrs by ELISA relative to control; assay type: functional; conditions: U-937, 24 h
Pseudomonas aeruginosa = experiment: Antimicrobial activity against Pseudomonas aeruginosa CGMCC 1.860 after 18 hrs by micro dilution method; assay type: functional; conditions: CGMCC 1.860, 18 h
Lipopolysaccharide (LPS) [26] = experiment: Induction of LPS micelles disaggergation assessed as small particle distribution at 2 uM by DLS method
Lipid bilayer [27] = experiment: Induction of membrane permeabilization in calcein loaded PG/CL/PE large unilamellar vesicles assessed as calcein leakage at 3 uM after 10 mins by fluorescence assay relative to control
HeLa = experiment: Cytotoxicity against human HeLa cells assessed as reduction in cell viability after 1 hr by MTT assay; assay type: functional, cell-based
U-937 [28] = experiment: Antiinflammatory activity in human U937 cells assessed as inhibition of LPS-induced IL-6 production after 24 hrs by ELISA; assay type: functional, cell-based
[29] = Self-assembly property assessed as diameter of monodispersed micelles at 1 mg/ml at pH 2 by TEM analysis; assay type: physicochemical
Escherichia coli [30] = experiment: Antimicrobial activity against Escherichia coli AS 1.349 assessed as induction of bacterial cytoplasmic membrane depolarization at 2 times MIC after 7 mins by diSC3-5 dye-based fluorescence assay; assay type: functional, organism-based
Lipid bilayer [31] = experiment: Induction of membrane permeabilization in calcein loaded LPS/PC/PG large unilamellar vesicles assessed as calcein leakage at 50 uM after 15 mins by fluorescence assay relative to control
Lipopolysaccharide (LPS) [32] = experiment: Binding affinity to Escherichia coli 0111:B4 LPS assessed as equilibrium association constant by ITC method
Lipid bilayer [33] = experiment: Induction of membrane permeabilization in calcein loaded PG/CL/PE large unilamellar vesicles assessed as calcein leakage at 6 uM after 15 mins by fluorescence assay relative to control

SMILES: CCCCCCCCCCCCCCCC(=O)N[C@@H](CO)C(=O)N[C@@H](CCCCN)C(=O)N[C@H](C(=O)N[C@@H](Cc1c[nH]c2ccccc12)C(=O)N[C@@H](CCCNC(=N)N)C(=O)N[C@@H](Cc1cnc[nH]1)C(=O)N[C@@H](Cc1c[nH]c2ccccc12)C(=O)N[C@@H](CCCNC(=N)N)C(=O)N[C@@H](CCCNC(=N)N)C(=O)N[C@@H](Cc1ccccc1)C(=O)N[C@@H](Cc1c[nH]c2ccccc12)C(=O)N[C@@H](Cc1cnc[nH]1)C(=O)N[C@@H](CCCNC(=N)N)C(=O)N[C@@H](C)C(=O)N[C@@H](Cc1cnc[nH]1)C(=O)N[C@@H](CCCNC(=N)N)C(=O)N[C@@H](CCCCN)C(=O)N[C@@H](CC(C)C)C(=O)O)C(C)C (Palmitoyl-SKVWRHWRRFWHRAHRKL-OH)
- Activity (Lipid bilayer [1]): inactive
- MIC (Enterococcus faecalis): 6.25 µM (≈ 17.4 µg/mL)
- Activity (Lipopolysaccharide (LPS) [2]): 100 nm
- inhibition at 6.25 µM (U-937 [3]): 32%
- Activity (Lipid bilayer [4]): 14 nm
- MIC (Escherichia coli [5]): 12.5 µM (≈ 34.8 µg/mL)
- IC50 (A-375): 18.2 µM
- Kd (Lipopolysaccharide (LPS) [6]): 8.77 µM
- Activity (Lipid bilayer [7]): Dose-dependent effect
- inhibition at 6.25 µM (U-937 [8]): 31%
- inhibition (U-937 [9]): Dose-dependent effect
- Activity (Lipid bilayer [10]): 46%
- viability at 1 h, up to 12.6 µM [11]: 80%
- IC50 (MCF7): 20.6 µM
- MIC (Lactococcus lactis): 3.13 µM (≈ 8.71 µg/mL)
- Activity (Escherichia coli [12]): Dose-dependent effect
- Activity (Lipid bilayer [13]): 80%
- inhibition at 12.6 µM (U-937 [14]): 35%
- Activity (Lipid bilayer [15]): 18 nm
- Activity (Lipid bilayer [16]): 20%
- Activity (Staphylococcus aureus [17]): Active
- HC50 at 1 h [18]: > 500 µM
- MIC (Enterococcus faecium): 3.13 µM (≈ 8.71 µg/mL)
- MIC (Bacillus cereus): 6.25 µM (≈ 17.4 µg/mL)
- inhibition at 12.6 µM (U-937 [19]): 35%
- inhibition at 3.13 µM (U-937 [20]): 24%
- Activity [21]: 24 nm
- Activity [22]: 200 nm
- MIC (Staphylococcus aureus [23]): 12.5 µM (≈ 34.8 µg/mL)
- Activity (Staphylococcus aureus [24]): Dose-dependent effect
- inhibition at 3.13 µM (U-937 [25]): 27%
- MIC (Pseudomonas aeruginosa): 6.25 µM (≈ 17.4 µg/mL)
- Activity (Lipopolysaccharide (LPS) [26]): 400 nm
- Activity (Lipid bilayer [27]): 33%
- IC50 (HeLa): 21 µM
- inhibition (U-937 [28]): Dose-dependent effect
- Activity [29]: 5460 nm
- Activity (Escherichia coli [30]): Active
- Activity (Lipid bilayer [31]): 55%
- Ka (Lipopolysaccharide (LPS) [32]): 114 mM⁻¹
- Activity (Lipid bilayer [33]): 54%
